Reference: patent publication US8828988B2 (Tetraphase Pharmaceuticals, Inc., priority 2009, dated 2014)
Converted amounts (≈) assume the structure as drawn. Like-named read-outs stand apart in the source and are kept apart here.

Assays:
[1] = tested on: E. coli DH10B(pBAD-tetK), expressing tet(K); experiment: MIC against recombinant E. coli expressing tet(K); format: cell-based; conditions: for MIC: Escherichia coli; for MIC ratio, TetK induced to uninduced: ratio of TetK induced to uninduced MIC; for Effect of expression of (tet)K on activity: result in words
Description: (§1) Constructs were transformed into E. coli DH10B for expression. Recombinant strains were pre-induced under optimized conditions with L-arabinose prior to use as inocula in CLSI standardized MIC assays.

[2] = tested on: E. coli DH10B(pBAD-tetM), expressing tet(M); experiment: MIC against recombinant E. coli expressing tet(M); format: cell-based; conditions: for MIC: Escherichia coli; for Ratio (TetM induced / Uninduced): ratio of MICs; for Effect of expression of (tet)M on activity: result in words
Description: as §1

[3] = tested on: E. coli S30 extract system, coupled in vitro transcription/translation, firefly luciferase readout; experiment: In vitro transcription/translation (TnT) assay; format: biochemical; conditions: for IC50, in vitro transcription/translation system: E. coli S30 extract, luciferase readout
[4] = tested on: Staphylococcus aureus SA101, ATCC 29213, MSSA; experiment: MIC assay, SA101; format: cell-based; conditions: Table 8, read-out: MIC S. aureus ATCC 29213
[5] = tested on: Staphylococcus aureus SA161, HA-MRSA, tetracycline-resistant, tet(M); experiment: MIC assay, SA161; format: cell-based; conditions: Table 8, read-out: MIC S. aureus MRSA, tetM
[6] = tested on: Staphylococcus aureus SA158, tetracycline-resistant tet(K); experiment: MIC assay, SA158; format: cell-based; conditions: Table 8, read-out: MIC S. aureus tetK
[7] = tested on: Enterococcus faecalis EF103, ATCC 29212; experiment: MIC assay, EF103; format: cell-based; conditions: Enterococcus faecalis, ATCC29212; Table 8; read-out: MIC E. faecalis ATCC 29212
[8] = tested on: Enterococcus faecalis EF159, tetracycline-resistant, tet(M); experiment: MIC assay, EF159; format: cell-based; conditions: Table 8, read-out: MIC E. faecalis tetM
[9] = tested on: Streptococcus pneumoniae SP106, ATCC 49619; experiment: MIC assay, SP106; format: cell-based; conditions: ATCC49619, Table 8, read-out: MIC S. pneumoniae ATCC 49619
[10] = tested on: Streptococcus pneumoniae SP160, tetracycline-resistant, tet(M); experiment: MIC assay, SP160; format: cell-based; conditions: Table 8, read-out: MIC S. pneumoniae tetM
[11] = tested on: Escherichia coli EC107, ATCC 25922; experiment: MIC assay, EC107; format: cell-based; conditions: ATCC25922, Table 8, read-out: MIC E. coli ATCC 25922
[12] = tested on: Escherichia coli EC155, tetracycline-resistant, tet(A); experiment: MIC assay, EC155; format: cell-based; conditions: Table 8, read-out: MIC E. coli tetA
[13] = tested on: E. faecalis clinical isolates; experiment: MIC50, MIC90 and MIC range, panel of clinical isolates (Example 20); format: cell-based; conditions: 24 isolates, in µg/mL
Protocol: (§2) The assays were run as follows.
(§3) Both values, as well as the MIC range (the lowest and highest MIC value observed for a collection of organisms), were determined for the isolates listed in Table 3.

[14] = tested on: S. aureus clinical isolates; experiment: as above; format: cell-based; conditions: MRSA, 30 isolates; in µg/mL
Protocol: as §2, §3

[15] = tested on: S. pneumoniae clinical isolates; experiment: as above; format: cell-based; conditions: 19 isolates, in µg/mL
Protocol: as §2, §3

Structure (SMILES)	MIC ([1]; read-out: MIC, TetK Induced)	MIC ([1]; read-out: MIC, Uninduced)	MIC ratio, TetK induced to uninduced [1]	MIC ([2]; read-out: MIC, TetM induced)	MIC ([2]; read-out: MIC, Uninduced)	Ratio (TetM induced / Uninduced) [2]	TnT IC50 [3]	other results
NCC[C@H](O)C(=O)N[C@@H]1C[C@H](N)[C@@H](O[C@H]2O[C@H](CN)[C@@H](O)[C@H](O)[C@H]2O)[C@H](O)[C@H]1O[C@H]1O[C@H](CO)[C@@H](O)[C@H](N)[C@H]1O [Amikacin, amikacin, reference compound]	8 µg/mL	8 µg/mL	1	4 µg/mL	4 µg/mL	1		Effect of expression of (tet)K on activity [1]: unaffected; Effect of expression of (tet)M on activity [2]: unaffected
CO/N=C(\C(=O)N[C@@H]1C(=O)N2C(C(=O)O)=C(CSc3nc(=O)c(=O)[nH]n3C)CS[C@H]12)c1csc(N)n1 [Ceftriaxone, ceftriaxone, reference compound]	0.25 µg/mL	0.125 µg/mL	2	0.125 µg/mL	0.0625 µg/mL	2		Effect of expression of (tet)K on activity [1]: unaffected; Effect of expression of (tet)M on activity [2]: unaffected
CCCc1nc(Cl)c2c(c1O)C(=O)C1=C(O)[C@]3(O)C(=O)C(C(N)=O)=C(O)[C@@H](N(C)C)[C@@H]3C[C@@H]1C2 [Compound 104]							5.3 µg/mL	
CCCNc1nc(F)c2c(c1O)C(=O)C1=C(O)[C@]3(O)C(=O)C(C(N)=O)=C(O)[C@@H](N(C)C)[C@@H]3C[C@@H]1C2 [Compound 114]							2.8 µg/mL	
CN(C)CCCNc1nc(Cl)c2c(c1O)C(=O)C1=C(O)[C@]3(O)C(=O)C(C(N)=O)=C(O)[C@@H](N(C)C)[C@@H]3C[C@@H]1C2 [Compound 119]							0.58 µg/mL	IC50, in vitro transcription/translation system [3]: sub-μg/ml
CN(C)[C@@H]1C(O)=C(C(N)=O)C(=O)[C@@]2(O)C(O)=C3C(=O)c4c(O)c(NC(=O)CNC(C)(C)C)nc(F)c4C[C@H]3C[C@@H]12 [Compound 120]							0.36 µg/mL	IC50, in vitro transcription/translation system [3]: sub-μg/ml
CN(C)[C@@H]1C(O)=C(C(N)=O)C(=O)[C@@]2(O)C(O)=C3C(=O)c4c(O)cnc(Cl)c4C[C@H]3C[C@@H]12 [Compound 123]								MIC [4]: 1 µg/mL (≈ 2.22 µM); MIC [5]: 32 µg/mL (≈ 71.1 µM); MIC [6]: 32 µg/mL (≈ 71.1 µM); MIC [7]: 32 µg/mL (≈ 71.1 µM); MIC [8]: > 32 µg/mL; MIC [9]: 1 µg/mL (≈ 2.22 µM); MIC [10]: 32 µg/mL (≈ 71.1 µM); MIC [11]: 2 µg/mL (≈ 4.45 µM); MIC [12]: > 32 µg/mL
CN(C)[C@@H]1C(O)=C(C(N)=O)C(=O)[C@@]2(O)C(O)=C3C(=O)c4c(O)c(NCC(F)(F)F)nc(Cl)c4C[C@H]3C[C@@H]12 [Compound 124]	16 µg/mL	8 µg/mL	2	16 µg/mL	4 µg/mL	4	>4.5 µg/mL	MIC Range [13]: 0.008-4; MIC Range [14]: 0.25-4; MIC Range [15]: <=0.016-8
